Laboratory results as given in PMC4136671 (Journal of Medicinal Chemistry, 2014).

Columns and labels:
[1] = target: T1, T. cruzi CYP51 (Trypanosoma cruzi, UniProt Q7Z1V1); assay: CYP51 spectral ligand binding assay; settings: for time course of the amplitude of the type 2 spectral response: T. cruzi CYP51 1.0 μM, 0.2 μM ligand (enzyme in excess)
[2] = target: T1, T. cruzi CYP51; assay: CYP51 activity assay; format: biochemical; settings: vs (R)-2; I/E=2, 1 h
[3] = test system: Chagas disease; settings: acute and chronic forms; cited from earlier work

T1 sequence (Q7Z1V1 whole entry): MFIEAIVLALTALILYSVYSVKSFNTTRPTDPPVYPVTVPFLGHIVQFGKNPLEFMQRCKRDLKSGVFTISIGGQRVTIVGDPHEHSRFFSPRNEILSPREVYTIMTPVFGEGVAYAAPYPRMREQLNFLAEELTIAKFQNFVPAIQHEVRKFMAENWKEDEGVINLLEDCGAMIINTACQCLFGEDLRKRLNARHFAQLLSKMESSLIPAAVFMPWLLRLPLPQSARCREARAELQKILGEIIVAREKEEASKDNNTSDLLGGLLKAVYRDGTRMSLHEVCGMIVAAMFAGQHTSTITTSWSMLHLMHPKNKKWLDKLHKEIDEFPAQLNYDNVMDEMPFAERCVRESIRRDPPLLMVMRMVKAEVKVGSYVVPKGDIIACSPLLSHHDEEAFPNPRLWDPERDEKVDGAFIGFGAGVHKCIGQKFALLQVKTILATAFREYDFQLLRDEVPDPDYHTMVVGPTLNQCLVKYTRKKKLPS

**Q.** Which “apparent binding efficiency, fold higher than (R)-2” value ([1]; vs (R)-2) does the source give for CC(C)c1ccc(NC(=O)O[C@H](Cn2ccnc2)c2ccc(Cl)cc2)cc1 [(S)-2, 1-(4-chlorophenyl)-2-(1H-imidazol-1-yl)ethyl-4-isopropylphenylcarbamate] here?
**A.** The value was 2 fold.

**Q.** What about the “inhibitory effect on the substrate conversion, fold stronger than (R)-2” value [2] of the same molecule?
**A.** The value was about 50 fold.

**Q.** With O=C(Nc1ccc(N2CCN(c3ccc(Cl)c(Cl)c3)CC2)cc1)OC(Cn1ccnc1)c1ccc(Cl)cc1Cl (centres unmarked) [Compound 6, 1-(2,4-dichlorophenyl)-2-(1H-imidazol-1-yl)ethyl 4-[4-(3,4-dichlorophenyl)piperazin-1-yl]phenylcarbamate] as the molecule, how does the “time course of the amplitude of the type 2 spectral response” value [1] read?
**A.** The value was “very slow increase”.

**Q.** Which “cure of Chagas disease in mice” value [3] does the source give for O=C(N[C@@H](Cn1ccnc1)c1ccc(Cl)cc1Cl)c1ccc(-c2nnc(-c3ccccc3)o2)cc1 [VNI, (R)-N-(1-(2,4-dichlorophenyl)-2-(1H-imidazol-1-yl)ethyl)-4-(5-phenyl-1,3,4-oxadiazol-2-yl)benzamide] here?
**A.** The value was “cure both the acute and chronic forms”.

**Q.** For CC(=O)N1CCN(c2ccc(OCC3COC(Cn4ccnc4)(c4ccc(Cl)cc4Cl)O3)cc2)CC1 (centres unmarked) [ketoconazole, reference compound], which “time course of the amplitude of the type 2 spectral response” value [1] is on record?
**A.** The value was “somewhat similar pattern”.
